Like-named read-outs stand apart in the source and are kept apart here.
Experiments:
human PHD2184-418 = human PHD2184-418 (Homo sapiens (Human), UniProt Q9GZT9); experiment: PHD2 inhibitory test (fluorescence polarization); assay type: binding; conditions: human PHD2184-418, FITC-labeled HIF-1α556-574 substrate, 2 μM 2-oxoglutarate, 37° C. 60 minutes
Protocol: (1) Expression and Preparation of Human PHD2184-418
Human PHD2184-418 containing amino acid residues 184 to 418 of the protein represented by CAC42509 (GenBank accession ID) was expressed and prepared by the following method.
An expression construct of human PHD2184-418 containing N-terminal histidine tag was introduced into pET-30a (+) vector, and the sequence was confirmed. This vector was introduced into BL21 (DE3) strain and cultured at 37° C. in LB medium containing antibiotics. After culturing, a cell lysis solution was added to the cells, and then the cells were disrupted by sonication. The disrupted suspension was centrifuged and the supernatant was purified by Ni column to give human PHD2184-418.
Human HIF-1α556-574 (FITC-labeled HIF-1α556-574), containing N-terminal FITC-Ahx, containing amino acid residues 556 to 574 (partial peptide) of HIF-1α was used as a substrate. Using FITC-labeled HIF-1α556-574, the competitive inhibition between 2-oxoglutarate and test compounds (PHD inhibitor) was evaluated based on the change in fluorescence polarization by the following method.
An enzyme (human PHD2184-418) and the substrate were diluted with an assay buffer (pH 7.4) containing 10 mM HEPES, 150 mM NaCl, 10 μM MnCl2-4H2O, 2 μM 2-oxoglutarate and 0.05% Tween-20. Test compounds were diluted with DMSO. Test compounds and human PHD2184-418 was added to the 384-well plate (Corning, black, opaque bottom) in advance. The reaction was started by the addition of FITC-labeled HIF-1α556-574. After incubating at 37° C. for 60 minutes, fluorescence polarization (excitation wavelength: 470 nm, fluorescence wavelength: 530 nm) was measured by PHERAstar FSX (BMG Labtech). Fluorescence polarization of each well was measured, and human PHD2 binding inhibitory activity of test compounds was calculated based on the value of test compound-free group.

[1] = tested on: TNBS induced colitis model rat; experiment: Therapeutic effect in TNBS induced colitis model rat (intestinal permeability of FITC); assay type: in vivo; conditions: po, 72 h, SD rats, mean, read-out: Inhibition (%): suppressive rate on the intestinal permeability; for inhibition in vivo at 3 mg/kg: 3 mg/kg orally once a day for 3 days
Protocol: SD rats: 8-weeks-old male SLC (Japan SLC) were used. Under pentobarbital anesthesia, 300 μL of TNBS (28 mg/mL) which was prepared by 50% ethanol was administered at a point 8 cm from anus in large intestine to cause inflammation. To the solvent-treated group was administrated 300 μL of 50% ethanol. Animals were fasted for 48 hours prior to administration of TNBS. Test compounds (3 mg/kg or 10 mg/kg) prepared by 0.05% methylcellulose solution were orally administered once a day from next day, and it was administered for a total of 3 days. After administering for 3 days, 50 mg/kg FITC was orally administered at 4 hours after administration. Blood samples were collected from jugular vein under isoflurane anesthesia after 4 hours. The serum was centrifuged and fluorescence intensity was detected by PHERAstar FSX (BMG Labtech) to measure the concentration of FITC permeating into circulating blood through the mesentery. The suppressive rate on the intestinal permeability of test compounds was calculated based on the value of test compounds-free group as 0 and the value of TNBS-untreated group as 100.

[2] = Rat PK study: concentration of compounds in large intestine tissue and plasma; assay type: in vivo; conditions: male, 3 mg/kg oral, non-fasted SD rats; for Kp at 8 h: large intestine tissue / plasma, read-out: C/P: ratio of Colon and Plasma; for Cmax: read-out: Cmax: maximum plasma concentration
Protocol: Test compounds (3 mg/kg/5 mL) prepared by 0.05% methylcellulose were orally administered to non-fasted rats (SD, 8-weeks-old, male, Japan SLC). Blood samples were collected from jugular vein at 0.25, 0.5, 1, 2, 4, 6 and 8 hours after the administration. Laparotomy was performed under isoflurane anesthesia and large intestine was isolated. Collected distal large intestine (about 5 cm) was cut open, and then the large intestine was washed with saline on a dish. After washing, the large intestine was minced by a small scissors. About 150 mg thereof was moved to tube. To the tube was added 100 μL of saline, the mixture was homogenized using shake master (1000 rpm×30 minutes). Samples were prepared by the addition with quadruple volume of saline as final volume. The concentrations of the test compound in large intestine tissue and plasma were measured through a quantitative analysis using liquid chromatography-mass spectrometry (LC/MS).
• Cmax: maximum plasma concentration of test compounds in the case of oral administration (ng/mL) • AUC: area under the plasma test compound concentration-time curve (ng*min/mL) • Plasma: plasma test compound concentration after 8 hours (ng/ml) • Colon: concentrations of the test compound in large intestine tissue after 8 hours (ng/g) • C/P: ratio of the above Colon and Plasma

[3] = as above; assay type: in vivo; conditions: male, plasma, 3 mg/kg oral, non-fasted SD rats, read-out: AUC: area under the plasma test compound concentration-time curve (converted)
[4] = large intestine tissue (distal, colon), read-out: Colon: concentration in large intestine tissue after 8 hours
[5] = plasma, read-out: Plasma: plasma test compound concentration after 8 hours

Chain of human PHD2184-418 (Q9GZT9 184-418): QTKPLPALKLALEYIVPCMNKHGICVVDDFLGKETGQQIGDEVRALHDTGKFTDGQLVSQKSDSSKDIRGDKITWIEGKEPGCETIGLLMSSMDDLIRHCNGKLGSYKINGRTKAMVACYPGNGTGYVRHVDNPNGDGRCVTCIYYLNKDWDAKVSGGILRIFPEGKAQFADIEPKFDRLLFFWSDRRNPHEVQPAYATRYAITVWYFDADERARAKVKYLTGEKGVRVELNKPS

IC50 (human PHD2184-418) [nM] | concentration at 8 h [2, 4] [ng/g] | Kp at 8 h [2] | concentration at 8 h [2, 5] [ng/mL] | Cmax ([2]; plasma) [ng/mL] | AUC [3] [ng·h/mL] | SMILES | inhibition in vivo at 10 mg/kg ([1]; 10 mg/kg orally once a day for 3 days) [%] | inhibition in vivo at 3 mg/kg [1] [%]
90 | 109 | 36 | 3 | 11 | 46.3 | O=C(O)c1cnn(-c2nc3ncn(Cc4ccc(-c5ccccc5)cc4)c3c(=O)[nH]2)c1 [Example 1, 1-(7-([1,1′-Biphenyl]-4-ylmethyl)-6-oxo-6,7-dihydro-1H-purin-2-yl)-1H-pyrazole-4-carboxylic acid] | 54 | 
640 | 188 | > 188 | < 1 | 3 | 0.833 | O=C(O)c1cnn(-c2nc3ncn(COCc4ccccc4)c3c(=O)[nH]2)c1 [Example 2, 1-(7-((Benzyloxy)methyl)-6-oxo-6,7-dihydro-1H-purin-2-yl)-1H-pyrazole-4-carboxylic acid] |  | 51
640 | 87 | > 87 | < 1 | 6 | 3.27 | O=C(O)c1cnn(-c2nc3ncn(Cc4ccc(O)cc4)c3c(=O)[nH]2)c1 [Example 3, 1-(7-(4-Hydroxybenzyl)-6-oxo-6,7-dihydro-1H-purin-2-yl)-1H-pyrazole-4-carboxylic acid] |  | 93
530 | 94 | 47 | 2 | 6 | 29.2 | CS(=O)(=O)c1ccc(Cn2cnc3nc(-n4cc(C(=O)O)cn4)[nH]c(=O)c32)cc1 [Example 4, 1-(7-(4-(Methylsulfonyl)benzyl)-6-oxo-6,7-dihydro-1H-purin-2-yl)-1H-pyrazole-4-carboxylic acid] |  | 66
 |  |  |  | 10 | 18.2 | COc1ccc(Cn2cnc3nc(-n4cc(C(=O)O)cn4)[nH]c(=O)c32)cc1 [Example 11, 1-(7-(4-Methoxybenzyl)-6-oxo-6,7-dihydro-1H-purin-2-yl)-1H-pyrazole-4-carboxylic acid] |  | 83
610 | 67 | 34 | 2 | 16 | 49.9 | O=C(O)c1ccc(Cn2cnc3nc(-n4cc(C(=O)O)cn4)[nH]c(=O)c32)cc1 [Example 12, 1-(7-(4-Carboxybenzyl)-6-oxo-6,7-dihydro-1H-purin-2-yl)-1H-pyrazole-4-carboxylic acid] |  | 78
370 | 646 | > 646 | < 1 | < 1 |  | O=C(O)c1cnn(-c2nc3c(ncn3Cc3ccc(O)cc3)c(=O)[nH]2)c1 [Example 29, 1-(9-(4-Hydroxybenzyl)-6-oxo-6,9-dihydro-1H-purin-2-yl)-1H-pyrazole-4-carboxylic acid] |  | 86
590 | 11 | > 11 | < 1 | < 1 |  | COc1ccc(Cn2cnc3c(=O)[nH]c(-n4cc(C(=O)O)cn4)nc32)cc1 [Example 35, 1-(9-(4-Methoxybenzyl)-6-oxo-6,9-dihydro-1H-purin-2-yl)-1H-pyrazole-4-carboxylic acid] |  | 81
420 | 323 | > 323 | 1 | 4 | 12.9 | Cl.O=C(O)c1cnn(-c2nc3ncn(Cc4ccc(OCCN5CCOCC5)cc4)c3c(=O)[nH]2)c1 [Example 75, 1-(7-(4-(2-Morpholinoethoxy)benzyl)-6-oxo-6,7-dihydro-1H-purin-2-yl)-1H-pyrazole-4-carboxylic acid hydrochloride] |  | 80

Source: patent publication US12157739B2, “Hypoxanthine compounds” (KISSEI PHARMACEUTICAL CO., LTD., priority 2018, dated 2024)
